Data from patent publication US12673945B2, “3-((8-((1H-pyrazol-4-yl)amino)imidazo[1,2-a]pyridin-3-yl)ethinyl)-n-phenylbenzamide derivative, method for preparing same, and pharmaceutical composition containing same as active ingredient for prevention or treatment of cancer” (DAEGU-GYEONGBUK MEDICAL INNOVATION FOUNDATION, priority 2020, dated 2026).

Columns and labels:
Format in all cases: cell-based
T315I-Bcr-Abl (Ba/F3) = experiment: Ba/F3 cell proliferation inhibition; conditions: BaF3; 72 hours, Cell Counting Kit-8
Method in brief: (§1)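 Parental and T315I-Bcr-Abl Ba/F3 cells, 1×10^4 per well, exposed 72 h at 37 °C to nine 3-fold dilutions, final 0 to 10 μM. Viability by CCK-8 after 2 h, absorbance 450 nm; GI50 fitted from percent of vehicle-treated cells.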

Parental (Ba/F3) = experiment: Ba/F3 cell proliferation inhibition; conditions: BaF3; 72 hours, Cell Counting Kit-8
Method in brief: as §1

TCCS cells = experiment: human CML cell proliferation inhibition; conditions: 72 hours, Cell Counting Kit-8
Method in brief: (§2)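 Here GI50 reflects CCK-8 absorbance (450 nm) after a 72 h compound exposure, calculated relative to vehicle wells. Compound was tested up to a final 10 μM. The parental lines carry Bcr-Abl, the T315I lines carry the T315I gatekeeper mutant.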

T315I-KOPM28 cells = experiment: human CML cell proliferation inhibition; conditions: 72 hours, Cell Counting Kit-8
Method in brief: as §2

T315I-TCCS cells = experiment: human CML cell proliferation inhibition; conditions: 72 hours, Cell Counting Kit-8
Method in brief: as §2

KOPM28 cells = experiment: human CML cell proliferation inhibition; conditions: 72 hours, Cell Counting Kit-8
Method in brief: as §2

Row | GI50 (T315I-Bcr-Abl (Ba/F3)) [nM] | Compound | GI50 (Parental (Ba/F3)) [µM] | GI50 (TCCS cells) [nM] | GI50 (T315I-KOPM28 cells) [nM] | GI50 (T315I-TCCS cells) [nM] | GI50 (KOPM28 cells) [nM]
1 | 500 to 5000 | Cc1cc(F)c(C(=O)Nc2ccc(Cn3ccnc3)c(C(F)(F)F)c2)cc1C#Cc1cnc2c(Nc3cnn(C)c3)cccn12 [Example 63, N-(4-((1H-imidazol-1-yl)methyl)-3-(trifluoromethyl)phenyl)-2-fluoro-4-methyl-5-((8-((1-methyl-1H-pyrazol-4-yl)amino)imidazo[1,2-a]pyridin-3-yl)ethynyl)benzamide] | > 5 | < 10 | > 100 | > 100 | < 10
2 | 50 to 500 | Cc1cc(F)c(C(=O)Nc2cc(CN3CCOCC3)cc(C(F)(F)F)c2)cc1C#Cc1cnc2c(Nc3cnn(C)c3)cccn12 [Example 66, 2-fluoro-4-methyl-5-((8-((1-methyl-1H-pyrazol-4-yl)amino)imidazo[1,2-a]pyridin-3-yl)ethynyl)-N-(3-(morpholinomethyl)-5-(trifluoromethyl)phenyl)benzamide] | > 5 | < 10 | > 100 | > 100 | < 10
3 | < 50 | Cc1cc(F)c(C(=O)Nc2cc(CN3CCC(N(C)C)C3)cc(C(F)(F)F)c2)cc1C#Cc1cnc2c(Nc3cnn(C)c3)cccn12 (stereo not drawn) [Example 68, N-(3-((3-(dimethylamino)pyrrolidin-1-yl)methyl)-5-(trifluoromethyl)phenyl)-2-fluoro-4-methyl-5-((8-((1-methyl-1H-pyrazol-4-yl)amino)imidazo[1,2-a]pyridin-3-yl)ethynyl)benzamide] | 0.5 to 5 | < 10 | 100 | 100 | < 10

Continued, compound first:

Row | Compound | GI50 (T315I-Bcr-Abl (Ba/F3)) [nM] | GI50 (Parental (Ba/F3)) [µM] | GI50 (TCCS cells) [nM] | GI50 (T315I-KOPM28 cells) [nM] | GI50 (T315I-TCCS cells) [nM] | GI50 (KOPM28 cells) [nM]
4 | Cc1cc(F)c(C(=O)Nc2ccc(CN3CC(OC(C)C)C3)c(C(F)(F)F)c2)cc1C#Cc1cnc2c(Nc3cnn(C)c3)cccn12 [Example 62, 2-fluoro-N-(4-((3-isopropoxyazetidin-1-yl)methyl)-3-(trifluoromethyl)phenyl)-4-methyl-5-((8-((1-methyl-1H-pyrazol-4-yl)amino)imidazo[1,2-a]pyridin-3-yl)ethynyl)benzamide] | 500 to 5000 | > 5 | < 10 | > 100 | > 100 | < 10
5 | Cc1cc(F)c(C(=O)Nc2ccc(Cn3cncn3)c(C(F)(F)F)c2)cc1C#Cc1cnc2c(Nc3cnn(C)c3)cccn12 [Example 64, N-(4-((1H-1,2,4-triazol-1-yl)methyl)-3-(trifluoromethyl)phenyl)-2-fluoro-4-methyl-5-((8-((1-methyl-1H-pyrazol-4-yl)amino)imidazo[1,2-a]pyridin-3-yl)ethynyl)benzamide] | 50 to 500 | > 5 | < 10 | > 100 | 100 | < 10
6 | Cc1cc(F)c(C(=O)Nc2ccc(Oc3ccncc3)c(C(F)(F)F)c2)cc1C#Cc1cnc2c(Nc3cnn(C)c3)cccn12 [Example 65, 2-fluoro-4-methyl-5-((8-((1-methyl-1H-pyrazol-4-yl)amino)imidazo[1,2-a]pyridin-3-yl)ethynyl)-N-(4-(pyridin-4-yloxy)-3-(trifluoromethyl)phenyl)benzamide] | 50 to 500 | > 5 | < 10 | 100 | 100 | < 10
7 | Cc1cc(F)c(C(=O)Nc2cc(CN3CCCN(C)CC3)cc(C(F)(F)F)c2)cc1C#Cc1cnc2c(Nc3cnn(C)c3)cccn12 [Example 67, 2-fluoro-4-methyl-N-(3-((4-methyl-1,4-diazepan-1-yl)methyl)-5-(trifluoromethyl)phenyl)-5-((8-((1-methyl-1H-pyrazol-4-yl)amino)imidazo[1,2-a]pyridin-3-yl)ethynyl)benzamide] | 50 to 500 | 0.5 to 5 | < 10 | 100 | 100 | < 10
